Target: M. tb PII (GlnB) (Mycobacterium tuberculosis, UniProt P9WN31)
Sequence (P9WQ65 417-477): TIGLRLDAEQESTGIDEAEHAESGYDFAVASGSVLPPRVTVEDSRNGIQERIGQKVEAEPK
Sequence (P9WN31 whole entry): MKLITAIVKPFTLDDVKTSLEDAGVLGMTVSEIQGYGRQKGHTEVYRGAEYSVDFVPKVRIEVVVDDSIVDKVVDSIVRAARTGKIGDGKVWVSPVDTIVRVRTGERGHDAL

## O=C(O)CCC(=O)C(=O)O [2-oxoglutarate]
  Ni-NTA pull-down of AmtCTR by His-PII, SDS-PAGE: PII is able to interact with AmtCTR being negatively modulated by 2-OG
